Laboratory results published in US20260240852A1, “Use of Oral JAK Kinase Inhibitors to Treat Lichen Planus” (Mayo Foundation for Medical Education and Research, priority 2023, published 2026).
“And” between values parts separate entries of the source, which are not always exact repeats. Equal entries are not always repeated.

Tests used:
Type in all cases: in vivo, human
[1] = system: patients with biopsy-proven cutaneous LP; assay: Open-label, single-arm phase 2 trial of oral baricitinib in cutaneous lichen planus: clinical efficacy
Protocol: A clinical study was conducted in which 12 patients with biopsy-proven LP were trialed on oral baricitinib at a daily dose of 2 mg for 16 weeks. Other inclusionary criteria included having at least 4 lesions of LP at baseline. The mean age of participants was 63.6 years. The vast majority were female and identified as Caucasian. A quarter were under-represented minorities. The mean duration of disease for all patients was 2.2 years. Five of the 12 participants had hypertrophic LP, and 11 were refractory to prior therapy. All but one patient had previously trialed topical steroids. Almost half (41.7%) had failed oral or IM steroids.
The primary outcome of this study was PGA at week 16, with treatment response defined as greater than 50% improvement with a PGA grade of 0 to 3. Non-responsive was defined as PGA 4 and 5. Secondary endpoints included changes from baseline to week 16 in mCAILS, pruritus scores, Skindex-16, BSA, and total lesion count.
Trial Design. A single-arm, open-label, phase 2, […] trial was conducted at Mayo Clinic, Arizona (ClinicalTrials.gov identifier NCT05188521). The Mayo Clinic Institutional Review Board approved the study (IRB 21-003075), and all patients provided written informed consent. Twelve patients with biopsy-proven cutaneous LP were administered oral baricitinib 2 mg once daily for 16-weeks. The primary endpoint was an overall response by Physician Global Assessment (PGA) of skin at week 16, with treatment response defined as PGA 0 to 3 (with ≥50% score reduction). Secondary outcomes were changes in mCAILS, total body lesion count, affected BSA, pruritus numeric rating scale (NRS), pruritus verbal rating scale (VRS), pruritus visual analog scale (VAS), pain NRS, and Skindex-16. Patients were evaluated at baseline (week 0) and weeks 2, 4, 8, 12, and 16. […] Complete responders at week 16 were reassessed at week 20 and partial responders at week 16 were reassessed at week 32, after an off-therapy period of 4 weeks, respectively.
(§1) Assessments of treatment efficacy, adverse events (AEs), and QoL were completed at each study visit. All lesions were annotated, photographed, and scored using the mCAILS criteria. 16 All clinical assessments were performed by the principal investigator and co-investigators (ARM, MRP, SZ) with questionable lesions scored by 2 investigators. The revised National Cancer Institute Common Terminology Criteria for Adverse Events version 5.0 was used for AE reporting. Due to travel issues, one patient withdrew from the study after week 8. An intention-to-treat (ITT) analysis was used with the patient's last observation to impute week 16 data.
Eligibility Criteria. Patients aged ≥18 years with biopsy-proven cutaneous LP were eligible for the trial. Both treatment-naïve and treatment-refractory disease were included. Key exclusion criteria included predominantly non-cutaneous variants of LP, active infections, and other active inflammatory cutaneous conditions.
Statistical Analysis. Patient demographics, clinical characteristics, and outcomes were summarized as mean, standard deviation, median, interquartile range for continuous variables, and frequency and percentages for categorical variables. Primary and secondary outcome differences between baseline and week 16 were compared using Wilcoxon signed rank test for continuous variables and McNemar's test for binary variables. One patient withdrew from the study after week 8, and this patient's last observation (week 8) was used to impute week 16 data in the ITT analysis.
Exact binomial method was used to calculate the treatment response rate at week 16 and its corresponding 95% confidence interval. All analyses were conducted with R version 4.1.2 (R Foundation for Statistical Computing, Vienna, Austria). The cut-off for statistical significance was set as 0.05.

[2] = Adverse event assessment in the baricitinib LP trial (CTCAE version 5.0)
Protocol: as §1

[3] = system: patients with biopsy-proven cutaneous LP; assay: Open-label, single-arm phase 2 trial of oral baricitinib in cutaneous lichen planus: clinical efficacy; details: dose escalation, after 12 weeks of 4 mg daily, five patients
[4] = five dose-escalation patients at week 16 (after 2 mg daily), start of dose escalation
[5] = oral 2 mg once daily, baseline to week 16, ITT
[6] = oral 2 mg once daily, baseline to week 16, ITT, P 0.002
[7] = oral 2 mg once daily, baseline to week 16, ITT, P 0.003

CCS(=O)(=O)N1CC(CC#N)(n2cc(-c3ncnc4[nH]ccc34)cn2)C1 [baricitinib]
Patients with PGA grade 1 [1, 4]: 80.0% | Patients with PGA grade 4 [1, 4]: 20% | Mean total body lesion count ([1]; oral 2 mg daily, by week 16, 146 at baseline (first report)): 8 | Treatment response (PGA), patients ([1]; oral 2 mg daily, week 1): 37.5% | Treatment response (PGA), patients ([1]; oral 2 mg daily, week 12): 100% | Patients with a PGA grade of 0 or 1 (completely clear and almost clear) ([1]; oral 2 mg daily, week 16 (primary endpoint), all but one patient): 90.9% | BSA affected (%), Range, Difference [1, 5]: −9.8 to −0.1% | Pain NRS, Range, Difference [1, 5]: −8.0 to 0.0 | Pruritus NRS, Range, Difference [1, 5]: −8.0 to −0.0 | Pruritus VAS, Range, Difference [1, 5]: −7.7 to 1.5 | Skindex-16 emotional, Range, Difference [1, 5]: −34.0 to 0.0 | Skindex-16 functional, Range, Difference [1, 5]: −15.0 to 0.0 | Skindex-16 overall, Range, Difference [1, 5]: −58.0 to 0.0 | Skindex-16 symptom, Range, Difference [1, 5]: −19.0 to 0.0 | Total Body Lesion Count, Range, Difference [1, 5]: −570.0 to −4.0 | mCAILS, Range, Difference [1, 5]: −14.6 to −5.0 | BSA affected (%), Mean (SD), Difference [1, 6]: −3.9 (2.9) % | Total Body Lesion Count, Mean (SD), Difference [1, 6]: −134.8 (157.0) | mCAILS, Mean (SD), Difference [1, 6]: −10.6 (2.9) | Pruritus NRS, Mean (SD), Difference [1, 7]: −5.3 (2.6) | Pruritus VAS, Mean (SD), Difference [1, 7]: −5.0 (2.6) | Pain NRS, Mean (SD), Difference ([1]; oral 2 mg once daily, baseline to week 16, ITT, P 0.005): −5.6 (2.7) | Skindex-16 overall, Mean (SD), Difference ([1]; oral 2 mg once daily, baseline to week 16, ITT, P 0.008): −37.3(18.3) | Pain NRS4, patients achieving ([1]; oral 2 mg once daily, week 16): 66.7% | Pruritus NRS improvement >4 from baseline (NRS4), patients achieving ([1]; oral 2 mg once daily, week 16): 75.0% | PGA Non-responsive (n, %) ([1]; oral 2 mg once daily, week 16, ITT, 12 patients): 16.7% | PGA Responsive (n, %) ([1]; oral 2 mg once daily, week 16, ITT, 12 patients, response = PGA 0 to 3 with ≥50% score reduction): 83.3% | BSA affected (%), Mean (SD), Week 16 ([1]; oral 2 mg once daily, week 16, ITT, baseline 4.9 (3.7), P 0.002): 1.0% and 1.0 (2.5) % | Skindex-16 functional, Mean (SD), Week 16 ([1]; oral 2 mg once daily, week 16, ITT, baseline 11.6 (10.2), P 0.012): 4.5 (9.0) | mCAILS, Mean (SD), Week 16 ([1]; oral 2 mg once daily, week 16, ITT, baseline 12.3 (3.2), P 0.002): 1.7 (3.3) | Skindex-16 symptom, Mean (SD), Week 16 ([1]; oral 2 mg once daily, week 16, ITT, baseline 16.4 (6.0), P 0.005): 3.7 (7.0) | Skindex-16 emotional, Mean (SD), Week 16 ([1]; oral 2 mg once daily, week 16, ITT, baseline 29.9 (9.0), P 0.003): 9.0 (12.4) | Skindex-16 overall, Mean (SD), Week 16 ([1]; oral 2 mg once daily, week 16, ITT, baseline 59.0 (22.1), P 0.008): 16.9 (28.7) | Skindex-16 functional, Range, Week 16 ([1]; oral 2 mg once daily, week 16, ITT, baseline range 0.0-30.0): 0.0-30.0 | BSA affected (%), Range, Week 16 ([1]; oral 2 mg once daily, week 16, ITT, baseline range 0.1-12.0): 0.0-8.5% | Pruritus NRS, Range, Week 16 ([1]; oral 2 mg once daily, week 16, ITT, baseline range 1.0-10.0): 0.0-10.0 | Pruritus VAS, Range, Week 16 ([1]; oral 2 mg once daily, week 16, ITT, baseline range 2.7-8.8): 0.0-9.0 | Pain NRS, Range, Week 16 ([1]; oral 2 mg once daily, week 16, ITT, baseline range 4.0-10.0): 0.0-10.0 | Skindex-16 symptom, Range, Week 16 ([1]; oral 2 mg once daily, week 16, ITT, baseline range 4.0-24.0): 0.0-24.0 | Total Body Lesion Count, Range, Week 16 ([1]; oral 2 mg once daily, week 16, ITT, baseline range 4.0-600.0): 0.0-117.0 | mCAILS, Range, Week 16 ([1]; oral 2 mg once daily, week 16, ITT, baseline range 7.0-18.6): 0.0-8.9 | Skindex-16 emotional, Range, Week 16 ([1]; oral 2 mg once daily, week 16, ITT, baseline range 17.0-42.0): 0.0-42.0 | Skindex-16 overall, Range, Week 16 ([1]; oral 2 mg once daily, week 16, ITT, baseline range 35.0-96.0): 0.0-96.0 | Overall Skindex-16 score, mean decrease from baseline to week 16 ([1]; oral 2 mg once daily, SD 18.3, p=0.008): 37.3 | Treatment response (PGA), patients ([1]; week 20, after 4 weeks of being off-therapy): 100% | Total adverse events ([2]; 12 patients, oral baricitinib): 12 | AEs leading to discontinuation ([2]; in vivo): No AEs led to the discontinuation | Serious adverse events ([2]; in vivo): Serious adverse events did not occur | Adverse events related / probably related to the study drug ([2]; low neutrophil count (neutropenia), mild, not deemed serious): one and A single AE of neutropenia | AEs that were mild ([2]; of 12 AEs): 58.3% | AEs that were moderate ([2]; of 12 AEs): 25.0% | Adverse events unrelated or unlikely to be related to baricitinib ([2]; of 12 AEs): 11 | Absolute neutrophil count of the drug-related AE ([2]; the one mild AE deemed probably related to the study drug): 7.8e+08 L⁻¹ | Patients almost clear (PGA grade 1) [3]: 20.0% | Patients completely clear of disease (PGA grade 0) [3]: 60.0% | Patients with slight improvement (PGA grade 4) [3]: 20.0%
